Test results: ChEMBL document CHEMBL1201862, “PubChem BioAssay data set” (2004)
“And” between values parts separate entries of the source, which are not always exact repeats. Equal entries are not always repeated.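 Following 48 hours of exposure in 96-well plates, responses at five concentrations were used to interpolate endpoints linearly. At the GI50, growth is halved.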 The source made the active and inactive calls. Cut-off read from the data, not from the text of the source: active = GI50 up to about 1.1 µM and inactive = higher.

How the values were obtained:
Assay in all cases: growth of human tumour cells (NCI), 48 h
[1] = tested on: OVCAR-4
[2] = tested on: KM12
[3] = tested on: SF-268
[4] = tested on: HCT-116
[5] = tested on: COLO 205
[6] = tested on: CAKI-1
[7] = tested on: EKVX
[8] = tested on: SNB-19
[9] = tested on: MDA-MB-231
[10] = tested on: NCI-H460
[11] = tested on: SF-295
[12] = tested on: M14
[13] = tested on: 786-0
[14] = tested on: HCC 2998
[15] = tested on: UO-31
[16] = tested on: A498
[17] = tested on: SK-MEL-2
[18] = tested on: OVCAR-3
[19] = tested on: OVCAR-5
[20] = tested on: HOP-62

Measured: GI50

CSC1=C(C(=O)Nc2ccc(C)cc2)C(N)=NC1=O
inactive: [1] > 100 µM | [2] > 100 µM | [3] > 100 µM | [4] > 100 µM | [5] > 100 µM | [6] > 100 µM | [7] > 100 µM | [8] > 100 µM | [9] > 100 µM | [10] > 100 µM | [11] > 100 µM | [12] > 100 µM | [13] > 100 µM | [14] > 100 µM | [15] > 100 µM

COc1ccc(-c2c(C3=NCCN3)nnn2-c2ccccc2)cc1
inactive: [1] > 100 µM | [2] > 100 µM | [3] > 100 µM | [4] 99.1 µM | [5] 98.9 µM | [16] > 100 µM | [6] > 100 µM | [17] > 100 µM | [18] > 100 µM | [19] > 100 µM | [7] > 100 µM | [20] > 100 µM | [8] > 100 µM | [10] > 100 µM | [11] > 100 µM | [12] > 100 µM | [13] > 100 µM | [14] > 100 µM | [15] > 100 µM

CC1(C)OC2[C@@H](CO[C@@]3([C@H]4OC(C)(C)O[C@@H]4CO)OC(C)(C)O[C@@H]23)O1 (stereo not given in full)
inactive: [1] > 100 µM | [2] > 100 µM | [3] > 100 µM | [4] > 100 µM | [5] > 100 µM | [17] > 100 µM | [18] > 100 µM | [19] > 100 µM | [7] > 100 µM | [20] > 100 µM | [8] > 100 µM | [9] > 100 µM | [10] > 100 µM | [11] > 100 µM | [12] > 100 µM | [13] > 100 µM | [14] > 100 µM | [15] > 100 µM

O=C(O)c1ccc(C(O)(c2ccccc2)c2ccccc2)cc1
inactive: [1] > 100 µM | [2] > 100 µM | [3] > 100 µM | [4] > 100 µM | [5] > 100 µM | [6] > 100 µM | [18] > 100 µM | [19] > 100 µM | [7] > 100 µM | [20] > 100 µM | [8] > 100 µM | [9] > 100 µM | [11] > 100 µM | [12] > 100 µM | [13] > 100 µM | [15] > 100 µM

CSC1=Nc2ccccc2N=C(c2ccccc2)C1
inactive: [1] > 100 µM | [2] 36 µM | [3] > 100 µM | [4] 24.6 µM | [5] 21.2 µM | [16] > 100 µM | [6] 75.2 µM | [17] > 100 µM | [18] 30.7 µM | [19] 67.1 µM | [7] 54.8 µM | [20] > 100 µM | [8] > 100 µM | [10] 19.1 µM | [11] > 100 µM | [12] > 100 µM | [13] 34.5 µM | [14] 62.2 µM | [15] 38 µM

COc1ccc(Cn2c(=O)c(OC)c(C)c3cc4ccccc4cc32)cc1
inactive: [1] 20.2 µM | [2] 26.5 µM | [3] 39 µM | [4] 18.6 µM | [5] 20.1 µM | [6] 37.3 µM | [17] 17.2 µM | [18] 19.9 µM | [19] 54.5 µM | [7] 6.55 µM | [20] 45.6 µM | [8] 48.1 µM | [9] 22.7 µM | [10] 17.3 µM | [11] 32.3 µM | [12] 41.2 µM | [13] 33 µM | [14] 29 µM | [15] 39.2 µM

O=[N+]([O-])c1ccc(-n2nnc(C3=NCCN3)c2-c2ccc(Cl)cc2)cc1
inactive: [1] > 100 µM | [2] > 100 µM | [3] 73.3 µM | [4] 55.8 µM | [5] 51.6 µM | [16] > 100 µM | [6] > 100 µM | [17] > 100 µM | [18] > 100 µM | [19] > 100 µM | [7] > 100 µM | [20] > 100 µM | [8] > 100 µM | [10] 91.4 µM | [11] > 100 µM | [12] > 100 µM | [13] > 100 µM | [14] > 100 µM | [15] 83.2 µM

Cc1ccc(S(=O)(=O)Nn2c(C)cc3ccc(S(=O)(=O)Nc4ccccc4[N+](=O)[O-])cc3c2=O)cc1
inactive: [1] > 100 µM | [2] 18.2 µM | [3] > 100 µM | [4] 47.4 µM | [5] 18.6 µM | [6] > 100 µM | [17] 39.4 µM | [18] 74.1 µM | [19] > 100 µM | [7] 95.9 µM | [20] 72.3 µM | [8] > 100 µM | [9] > 100 µM | [10] 77.3 µM | [11] 17.6 µM | [12] 13.6 µM | [13] > 100 µM | [14] > 100 µM | [15] 63.7 µM

O=S(=O)(O)c1ccc(/N=N/c2ccc(/N=N/c3c(O)ccc4cc(S(=O)(=O)O)ccc34)cc2)cc1
inactive: [2] > 100 µM | [3] > 100 µM | [4] > 100 µM | [5] > 100 µM | [6] > 100 µM | [17] > 100 µM | [18] > 100 µM | [19] > 100 µM | [7] > 100 µM | [20] > 100 µM | [8] > 100 µM | [9] > 100 µM | [10] > 100 µM | [11] > 100 µM | [12] > 100 µM | [13] > 100 µM | [14] > 100 µM | [15] 53.3 µM

C=C[C@@]1(C)CC2CC[C@]3(C)C(C)=CC(=O)CC3[C@]2(C)CC1O (stereo not given in full)
inactive: [1] > 100 µM | [2] 85.3 µM | [3] > 100 µM | [4] 91.4 µM | [5] 94.4 µM | [16] > 100 µM | [6] > 100 µM | [17] > 100 µM | [18] 67.3 µM | [19] > 100 µM | [7] > 100 µM | [20] > 100 µM | [8] > 100 µM | [10] > 100 µM | [11] > 100 µM | [12] > 100 µM | [13] > 100 µM | [14] > 100 µM | [15] > 100 µM

NC1=NC(=O)/C(=C2\CCNC(=O)c3[nH]c(Br)cc32)N1 [HYMENIALDISINE]
inactive: [1] 15.3 µM and 17.5 µM | [3] 8.93 µM and 5.09 µM | [4] 7.16 µM and 5.57 µM | [19] > 52.1 µM and > 57.5 µM | [7] > 100 µM and > 71.3 µM | [20] 40.8 µM and 31.9 µM | [8] 39.1 µM and 48.2 µM | [9] 4.66 µM | [10] 65.6 µM | [11] > 100 µM | [12] 9.89 µM | [13] 27.5 µM | [14] 57.9 µM and 55.3 µM | [15] 3.02 µM and 5.6 µM
